Source: patent US20070059269A1, “Administration of 8-hexadecene-1,16-dicarboxylic acid for promoting cohesion of the epidermal horny layer” (L'OREAL, priority 2005, published 2007)
Values belong to the compound of their own block, whether it stands above or below them.

Columns and labels:
Format in all cases: cell-based
LEP16 = assay: Differential expression by cDNA minichips in NHEK: LEP16; conditions: normal human epidermal keratinocytes (NHEK), cDNA array
Protocol: (§1) Analysis of the Differential expression by Minichips:
(§2) In order to study the activity of a product on the formation of the horny layer, the effect of the product on the expression of genes known to be modulated in keratinocytes during their transformation into corneocytes is analyzed.
(§3) The analysis is performed using dedicated minichips, consisting of cDNA membrane arrays known to those skilled in the art for their relationship with re-epithelialization and/or cohesion of the horny layer, especially such as the LEP proteins (late epidermal proteins), corneodesmosines and epidermal growth factor HBEGF (human heparin-binding EGF-like growth factor).
(§4) The cell model used comprises normal human epidermal keratinocytes (NHEK). The keratinocytes are cultured in SFM medium with 0.25 ng/ml EGF and 25 μg/ml of pituitary extract at 37° C. and 5% CO2. The keratinocytes are inoculated in 25 cm^2 dishes and precultured in whole SFM medium, and then placed in EGF-free and pituitary extract-free SFM medium.
(§5) The test products are applied at the non-irritant and non-cytotoxic concentrations defined in a).
(§6) The controls correspond to the same conditions, in the absence of product.
(§7) The cells are then rinsed with PBS and then lysed and the messenger RNA is extracted and purified using the kit Chemagic mRNA Direct kit marketed by Chemagen.
(§8) The RNA of each culture is then reverse-transcripted using a pool of primers corresponding to the cDNAs immobilized on the membranes (probes) and a ^33P-labelled deoxynucleotide triphosphate.
(§9) Multiple cDNA “target” labeled sequences were thus prepared for each culture. These targets were then hybridized, under optimal conditions, with the excess “probe” cDNAs bound to the membranes. […] The membrane analysis was performed using the ImageQuant TL software (Image Analysis, Amersham Biosciences) and the data recorded were then processed on Excel. The differential expression of the various genes following the treatment is thus measured by comparison with the corresponding control.

Cdsn (corneodesmosine) = assay: Differential expression by cDNA minichips in NHEK: corneodesmosine (Cdsn); conditions: normal human epidermal keratinocytes (NHEK), cDNA array
Protocol: as §1, §2, §3, §4, §5, §6, §7, §8, §9

[1] = system: HBEGF (human heparin-binding EGF-like growth factor); assay: Differential expression by cDNA minichips in NHEK: HBEGF; conditions: 1 μg/ml, normal human epidermal keratinocytes (NHEK), cDNA array
Protocol: as §1, §2, §3
as §4, with “medium. […]” for “medium.”
Multiple cDNA “target” labeled sequences were thus prepared for each culture. […] The membrane analysis was performed using the ImageQuant TL software (Image Analysis, Amersham Biosciences) and the data recorded were then processed on Excel. The differential expression of the various genes following the treatment is thus measured by comparison with the corresponding control.

[2] = 1 μg/ml, listed as 8-hexadecene-1,16-dicarboxylic acid

Compound: O=C(O)CO [Glycolic acid, reference compound]
- Markers for the formation of the horny layer (LEP): LEP16 expression, multiplicative factor vs control (LEP16; 100 μg/ml): LEP16 (×2.6)
- Markers for intercorneocytic cohesion (Cdsn): Cdsn expression, multiplicative factor vs control (Cdsn (corneodesmosine); 100 μg/ml): Cdsn (×1.6)

Compound: CC(O)C(=O)O (stereo not shown) [Lactic acid, reference compound]
- Markers for the formation of the horny layer (LEP): LEP16 expression, multiplicative factor vs control (LEP16; 100 μg/ml): LEP16 (×1.6)

Compound: O=C1O[C@H]([C@@H](O)CO)C(O)=C1O [Ascorbic acid, reference compound]
- Markers for intercorneocytic cohesion (Cdsn): Cdsn expression, multiplicative factor vs control (Cdsn (corneodesmosine); 100 μg/ml): Cdsn (×1.7)

- Re-epithelialization markers: HBEGF expression, multiplicative factor vs control ([1]; listed as 8-hexadecene-1,16-dicarboxylic acid): capable of stimulating the expression
Compound: O=C(O)CCCCCCCC=CCCCCCCCC(=O)O [Dioic acid, 8-hexadecene-1,16-dicarboxylic acid]
- Markers for the formation of the horny layer (LEP): LEP16 expression, multiplicative factor vs control (LEP16; 1 μg/ml): LEP16 (×3.0)
- Markers for the formation of the horny layer (LEP): LEP16 expression, multiplicative factor vs control (LEP16; [2]): capable of stimulating the expression
- Markers for intercorneocytic cohesion (Cdsn): Cdsn expression, multiplicative factor vs control (Cdsn (corneodesmosine); 1 μg/ml): Cdsn (×2.4)
- Markers for intercorneocytic cohesion (Cdsn): Cdsn expression, multiplicative factor vs control (Cdsn (corneodesmosine); [2]): capable of stimulating the expression
- Re-epithelialization markers: HBEGF expression, multiplicative factor vs control [1]: HBEGF (×1.6)
